# Experimental data published in PMC6930223 (Scientific Reports, 2019).
# Like-named read-outs stand apart in the source and are kept apart here.
# What was measured:
# hERG1a/1b current = hERG1a/1b current (Homo sapiens, UniProt Q12809)
# Description: All working solutions were sterile-filtered, stored at −20 °C and thawed to room temperature before use.
# Prior to electrophysiology study, the HEK293-hERG1a/1b cells were first grown in complete medium without selection antibiotics for 6 days. Approximately 5.0 × 10^5 cells were then plated onto an uncoated 96-mm cell culture dish for a maximum of 3 days. […] The cell suspension was then transferred into a 15-ml polypropylene tube and centrifuged at 100 × g for 3 min. Subsequently, the cell pellet was resuspended in extracellular solution to obtain a final density of 2 × 10^6–3 × 10^6 cells/ml and incubated on ice for 20 min to allow cell recovery. The electrophysiology studies were performed using NPC®-1 chips (Nanion Technologies, Germany) and Port-a-Patch system (Nanion Technologies, Germany) following manufacturer’s instructions, within the next 2 h. For characterization and determination of the hERG1a/1b current inhibition, a series of voltage protocols were applied as published previously.
# The hERG1a/1b current was recorded in cells achieving whole-cell configuration. Briefly, a single cell was first held at −80 mV, the theoretical cardiac resting membrane potential, on the aperture of the NPC-1 chip (Nanion Technologies, Germany). To characterize the I-V relationship, the cell was depolarized to test potentials ranging from −60 mV to +50 mV for 4 s in […], followed by a 5-s step to −50 mV before returning to −80mV.
# To determine the pharmacological effects of the HEK293-hERG1a/1b cells, the cells were perfused with test compound solutions using an external perfusion system. […] The mean of six successive Itail was recorded for each test concentration. Four independent experiments were conducted to derive the dose-response curve.
# hERG1a/Hsp70 complexes = test: Co-immunoprecipitation of cg-hERG1a with chaperone; format: cell-based, human; details: 24 h
# Description: (§1) The co-immunoprecipitation method was adapted and modified slightly from the previously described methodologies[40],[52]. The treated recombinant cells were incubated for 15 min at room temperature with PBS containing cross-linker 1.5 mM dithiobis (succinimidyl propionate) (DSP, Pierce USA). The cross-linker was quenched by addition of 10 mM Tris (pH 7.5) and incubated for 10 min at room temperature. Cells were detached in 10 ml ice-cold PBS and centrifuged at 300 x g for 5 min at 4 °C. The pellet was then resuspended in 300 µl ice-cold complete diluted RIPA lysis buffer containing 0.1% (v/v) NP40, 50 mM Tris pH 7.5, 150 mM NaCl, 1x PMSF solution, 1x sodium orthovanadate solution and 1x protease inhibitor cocktail solution. Subsequently, the cell suspension was incubated at 4 °C for 30 min with constant agitation and finally centrifuged at 14, 000 rpm for 10 min at 4 °C. The supernatant was saved for total protein quantitation and subsequently for co-immunoprecipitation experiments.
# (§2) Briefly, 500 µg of isolated total protein was mixed with 2 µg of hERG1 rabbit polyclonal IgG (Santa Cruz Biotechnology Inc., USA), mouse Hsp70/Hsc70 monoclonal antibody (Santa Cruz Biotechnology Inc., USA) or mouse Hsp90α/β monoclonal antibody (Santa-Cruz Biotechnology Inc., USA) respectively and incubated on ice on a rotary shaker overnight. Subsequently, 30 µl of protein A/G PLUS-agarose immunoprecipitation reagent (Santa Cruz Biotechnology Inc., USA) was added into the mixture, and incubated on ice on a shaker for 8 h and subsequently stored in 4 °C overnight. The mixture was centrifuged at 1500 rpm for 5 min at 4 °C, and the pellet was washed with ice-cold PBST, each time repeating the centrifugation process. Finally, the pellet was resuspended in 25 µl 1x Laemmli sample buffer (Bio-Rad Laboratories Inc., USA) with 2.5% (v/v) β-mercaptoethanol, and then heated at 70 °C for 2 h to reverse cross-linking and to release the immunoprecipitated protein from A/G PLUS-agarose beads. The samples were centrifuged at 1500 rpm for 5 min at 4 °C to pellet the agarose beads and 20 µl of the supernatant was used for subsequent SDS-PAGE and immunoblotting analysis as described previously.
# (§3) To analyze the immunoprecipitated proteins, the membrane was probed with rabbit anti-potassium channel Kv11.1 extracellular antibody (1:200) (Sigma-Aldrich, USA), mouse Hsp70/Hsc70 monoclonal antibody (1:10, 000) and mouse Hsp90α/β monoclonal antibody (1:10, 000) in the same container. […] To quantify hERG1/chaperone interactions, image densities of the core-glycosylated (cg) hERG1 protein found in immunoprecipitations with anti-hERG1 antibody were used as a measure of total hERG1a protein present. […]
# hERG1a/Hsp90 complexes = test: Co-immunoprecipitation of cg-hERG1a with chaperone; format: cell-based, human; details: 10 µM, 24 h, vs untreated control
# Description: as §1, §2, §3
# [1] = test system: rapidly delayed rectifier potassium current (IKr) in hiPSC-CMs; set-up: method as in PMID 25535742; details: cited from earlier work
# hERG1a [2] = test system: hERG1a; set-up: method as in PMID 27260674; details: read-out: IC50 in hERG1a-transfected HEK293 cells; cited from earlier work
# hERG1a [3] = test system: hERG1a; set-up: method as in PMID 27260674; details: read-out: IC50 in hERG1a-injected Xenopus oocytes; cited from earlier work
# [4] = test system: GIRK (G protein-coupled inward rectifier potassium) channels; set-up: method as in PMID 27260674; details: heterologous expression systems; cited from earlier work
# CYP2D6 = details: cited from earlier work
substance,measurement,setting,value
mitragynine,Hill coefficient (h),hERG1a/1b current; dose-response fit of hERG1a/1b tail current inhibition,0.61
same,IC50,"hERG1a/1b current; read-out: IC50 of hERG1a/1b current inhibition, peak tail current, step pulse protocol, HEK293-hERG1a/1b cells, four independent experiments",333 nM
same,association of hERG1a/Hsp70,hERG1a/Hsp70 complexes; 1 µM,not significantly affected
same,association of hERG1a/Hsp70,hERG1a/Hsp70 complexes; 10 μM,not significantly affected
same,relative expression of hERG1a/Hsp90 complexes,hERG1a/Hsp90 complexes,significantly increased
same,up-regulation of hERG1a interacting with Hsp90,hERG1a/Hsp90 complexes,approximately 2.5 fold
same,action potential duration at 50 and 90% repolarization (APD50 and APD90),"[1]; 10 µM, hiPSC-CMs",significantly prolonged
same,IC50,[1]; read-out: IC50 of IKr suppression in hiPSC-CMs,910 nM
same,IC50,hERG1a [2],1620 nM
same,IC50,hERG1a [3],1030 nM
same,effect on GIRK channels,[4],inhibit
same,effect on CYP2D6,CYP2D6,potent inhibitory activity
